Literature values, collected in US7491718B2, “Sulfonamides having antiangiogenic and anticancer activity” (Abbott Laboratories, priority 2002, dated 2009).

Biological target: type 2-methionine aminopeptidase (MetAP-2) (Homo sapiens, UniProt P50579)
Details: reported in Proc. Natl. Acad. Sci. USA 94: 6099-6103 (1997) and Chemistry and Biology, 4(6): 461-471 (1997)

type 2-methionine aminopeptidase (MetAP-2), sequence (P50579 whole entry, species assumed): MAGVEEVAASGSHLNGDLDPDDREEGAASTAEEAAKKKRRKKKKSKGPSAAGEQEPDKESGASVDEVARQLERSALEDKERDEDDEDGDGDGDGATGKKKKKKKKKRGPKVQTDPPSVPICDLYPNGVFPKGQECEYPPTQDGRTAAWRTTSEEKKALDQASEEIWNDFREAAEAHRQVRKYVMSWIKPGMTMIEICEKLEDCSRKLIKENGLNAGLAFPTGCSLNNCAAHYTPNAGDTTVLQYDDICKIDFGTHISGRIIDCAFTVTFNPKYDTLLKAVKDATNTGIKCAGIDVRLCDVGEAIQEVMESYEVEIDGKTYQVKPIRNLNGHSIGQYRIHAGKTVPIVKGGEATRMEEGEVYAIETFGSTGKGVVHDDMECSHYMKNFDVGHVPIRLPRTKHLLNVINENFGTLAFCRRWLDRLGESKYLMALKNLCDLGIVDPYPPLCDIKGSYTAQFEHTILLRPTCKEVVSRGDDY

For `CO[C@@H]1[C@H](OC(=O)NC(=O)CCl)CC[C@]2(CO2)[C@H]1[C@@]1(C)O[C@@H]1CC=C(C)C` [AGM-1470], the “binding to MetAP-2” value is given as “bind”.
